Patent US20240301319A1, “PERFUMING COMPOSITIONS” (FIRMNICH SA, priority 2017, published 2024)
One block for each molecule: values may come before it.

Assays:
[1] = Odor threshold and odor value of perfuming compounds (Tables 4 to 10)
[2] = Volatility of perfuming compounds (Tables 4 to 10), with top/middle/bottom note type; assay type: physicochemical
Procedure: In some aspects, the first perfume accord comprises perfuming compounds having a volatility ranging from 70,000 to 100 μg/l in air. In some aspects, perfuming compounds having a volatility ranging from 70,000 to 100 μg/l in air are referred to as “top notes”.
In some aspects, the second perfume accord comprises perfuming compounds having a volatility ranging from 99 to 50 μg/l in air. In some aspects, perfuming compounds having a volatility ranging from 99 to 50 μg/l in air are referred to as “middle notes”.
In some aspects, the third perfume accord comprises perfuming compounds having a volatility ranging from 49 to 0.1 μg/l in air. In some aspects, perfuming compounds having a volatility ranging from 49 to 0.1 μg/l in air are referred to as “bottom notes”.
Tables 4 to 10 describe top, middle and bottom note perfuming compounds for watery, green, fruity, citrus, sweet, gourmand and woody notes respectively.

[3] = Table 10, perfuming compounds having a woody note, note type by volatility
[4] = perfuming compounds having a green note
[5] = note type (Top/Middle/Bottom) by volatility, perfuming compounds having a green note
[6] = Table 8, perfuming compounds having a sweet note
[7] = Table 8, perfuming compounds having a sweet note, note type by volatility
[8] = Table 9, perfuming compounds having a gourmand note, note type by volatility
[9] = Table 6, perfuming compounds having a fruity note
[10] = Table 6, perfuming compounds having a fruity note, note type by volatility
[11] = Table 4, watery note, equals volatility divided by odor threshold
[12] = Table 7, citrus note, equals volatility divided by odor threshold
[13] = Table 4, watery note, top, middle or bottom note
[14] = Table 7, citrus note, top, middle or bottom note

Type [2, 3]: Bottom
Volatility ([2]; Table 10, woody note): 29.81 μg/l air
Molecule: CC1C(C)(C)C2=C(C(=O)CCC2)C1(C)C (stereo not drawn)
Odor Threshold ([1]; Table 10, woody note): 4.57E−03 μg/l air

Type [2, 5]: Bottom
Volatility (μg/l air) [2, 4]: 29.99 μg/l air
Molecule: CC1CC(C)(C)OC(Cc2ccccc2)O1 (stereo not drawn)
Odor Threshold (μg/l air) [1, 4]: 5.26E−02 μg/l air

Type [2, 5]: Top
Volatility (μg/l air) [2, 4]: 195.24 μg/l air
Molecule: COc1nccnc1CCCC(C)C
Odor Threshold (μg/l air) [1, 4]: 1.18E−07 μg/l air

Type [2, 3]: Middle
Volatility ([2]; Table 10, woody note): 60.02 μg/l air
Molecule: CC(=O)OCCC1=CCC2CC1C2(C)C (stereo not drawn)
Odor Threshold ([1]; Table 10, woody note): 1.10E−01 μg/l air

Type [2, 5]: Top
Volatility (μg/l air) [2, 4]: 417.92 μg/l air
Molecule: CC1(C)CC=C(CCC=O)CC1
Odor Threshold (μg/l air) [1, 4]: 2.06E−03 μg/l air

Volatility [2, 6]: 56.72 μg/l air
Type [2, 7]: Middle
Volatility ([2]; Table 9, gourmand note): 56.72 μg/l air
Type [2, 8]: Middle
Molecule: CC/C=C\CC1=C(C)CCC1=O
Odor Threshold [1, 6]: 2.16E−04 μg/l air
Odor Value [1, 6]: 2.63E+05
Odor Threshold ([1]; Table 9, gourmand note): 2.16E−04 μg/l air

Volatility [2, 9]: 3480.57 μg/l air
Type [2, 5]: Top
Volatility (μg/l air) [2, 4]: 3480.57 μg/l air
Molecule: C=CC(C)=CCC=C(C)C
Odor Threshold (μg/l air) [1, 4]: 2.57E−02 μg/l air
Type [2, 10]: TOP (perfuming compounds having a volatility ranging from 70,000 to 100 μg/l in air are referred to as “top notes”)

Type [2, 3]: Bottom
Volatility ([2]; Table 10, woody note): 9.23 μg/l air
Molecule: CC1(C)CCC[C@@]2(C)[C@H]1CC[C@@]1(C)OCC[C@@H]21
Odor Threshold ([1]; Table 10, woody note): 2.16E−03 μg/l air

Volatility [2, 6]: 63.61 μg/l air
Type [2, 7]: Middle
Type [2, 3]: Middle
Volatility ([2]; Table 10, woody note): 63.61 μg/l air
Molecule: CC(=O)CCC1=C(C)CCCC1(C)C
Odor Threshold [1, 6]: 8.51E−03 μg/l air
Odor Value [1, 6]: 7.48E+03
Odor Threshold ([1]; Table 10, woody note): 8.51E−03 μg/l air

Volatility [2, 9]: 1.01 μg/l air
Type [2, 10]: Bottom
Volatility [2, 6]: 1.01 μg/l air
Type [2, 7]: Bottom
Volatility ([2]; Table 9, gourmand note): 1.01 μg/l air
Type [2, 8]: Bottom
Molecule: COc1cc(C=O)ccc1OC(=O)C(C)C
Odor Threshold [1, 9]: 7.33E−05 μg/l air
Odor Value [1, 9]: 1.38E+04
Odor Threshold [1, 6]: 7.33E−05 μg/l air
Odor Value [1, 6]: 1.38E+04
Odor Threshold ([1]; Table 9, gourmand note): 7.33E−05 μg/l air

Type [2, 3]: Top
Volatility ([2]; Table 10, woody note): 1311.32 μg/l air
Molecule: COC(OC)C(C)(C)CC=C(C)C
Odor Threshold ([1]; Table 10, woody note): 1.26E−02 μg/l air

Volatility [2, 9]: 2885.67 μg/l air
Type [2, 5]: Top
Volatility (μg/l air) [2, 4]: 2885.67 μg/l air
Molecule: CCOC(=O)CC(C)=O
Odor Threshold (μg/l air) [1, 4]: 5.83E−02 μg/l air
Type [2, 10]: TOP (perfuming compounds having a volatility ranging from 70,000 to 100 μg/l in air are referred to as “top notes”)

Type [2, 5]: Top
Volatility (μg/l air) [2, 4]: 2483.93 μg/l air
Molecule: CC(C)=CC1CC(C)CCO1 (stereo not drawn)
Odor Threshold (μg/l air) [1, 4]: 8.77E−04 μg/l air

Volatility [2, 6]: 15.81 μg/l air
Type [2, 7]: Bottom
Volatility ([2]; Table 9, gourmand note): 15.81 μg/l air
Type [2, 8]: Bottom
Molecule: CCC(=O)/C=C/C1=C(C)CCCC1(C)C
Odor Threshold [1, 6]: 1.16E−04 μg/l air
Odor Value [1, 6]: 1.37E+05
Odor Threshold ([1]; Table 9, gourmand note): 1.16E−04 μg/l air

Type [2, 3]: Top
Volatility ([2]; Table 10, woody note): 735.37 μg/l air
Molecule: CC(=O)O[C@@H]1CC2CC[C@]1(C)C2(C)C
Odor Threshold ([1]; Table 10, woody note): 4.46E−02 μg/l air

Type [2, 3]: Top
Volatility ([2]; Table 10, woody note): 216.42 μg/l air
Molecule: CCC(=O)O[C@H]1C[C@@H]2CC[C@@]1(C)C2(C)C
Odor Threshold ([1]; Table 10, woody note): 4.55E−02 μg/l air

Type [2, 3]: Bottom
Volatility ([2]; Table 10, woody note): 1.74 μg/l air
Molecule: CC1(CO)CC1CC1CC2CC2(C)C1(C)C (stereo not drawn)
Odor Threshold ([1]; Table 10, woody note): 2.18E−06 μg/l air

Type [2, 5]: Bottom
Volatility (μg/l air) [2, 4]: 22.29 μg/l air
Molecule: CC(C)[C@@H]1CC[C@@H](C)CC1=NO
Odor Threshold (μg/l air) [1, 4]: 5.52E−05 μg/l air

Type [2, 5]: Top
Volatility (μg/l air) [2, 4]: 1247.28 μg/l air
Molecule: C=C/C=C/C=C\CCCCC
Odor Threshold (μg/l air) [1, 4]: 3.76E−05 μg/l air

Volatility ([2]; Table 9, gourmand note): 74.03 μg/l air
Type [2, 8]: Middle
Molecule: C[C@@H]1CC[C@H]2[C@H](C)C(=O)O[C@@H]2C1
Odor Threshold ([1]; Table 9, gourmand note): 3.46E−05 μg/l air

Type [2, 3]: Bottom
Volatility ([2]; Table 10, woody note): 20.41 μg/l air
Molecule: CC1=CCC(/C=C/C(C)C(C)O)C1(C)C (stereo not drawn)
Odor Threshold ([1]; Table 10, woody note): 9.56E−05 μg/l air

Type [2, 3]: Bottom
Volatility ([2]; Table 10, woody note): 1.71 μg/l air
Molecule: CCCCC[C@@H]1C(=O)CC[C@@H]1CC(=O)OC
Odor Threshold ([1]; Table 10, woody note): 2.82E−04 μg/l air

Type [2, 3]: Bottom
Volatility ([2]; Table 10, woody note): 0.00 μg/l air
Molecule: C[C@@H]1CC[C@H]2C(C)(C)[C@H]3C[C@@]12C[C@@H]1OC(C)(C)O[C@@]13C
Odor Threshold ([1]; Table 10, woody note): 3.90E−06 μg/l air

Type [2, 3]: Bottom
Volatility ([2]; Table 10, woody note): 2.75 μg/l air
Molecule: CC/C(=C\C[C@H]1CC=C(C)C1(C)C)CO
Odor Threshold ([1]; Table 10, woody note): 2.41E−05 μg/l air

Type [2, 5]: Top
Volatility (μg/l air) [2, 4]: 993.39 μg/l air
Molecule: COC(C)(C)[C@H]1CC=C(C)CC1
Odor Threshold (μg/l air) [1, 4]: 1.99E−01 μg/l air

Volatility (μg/l air) ([2]; Table 4, watery note): 13.68 μg/l air
Volatility (μg/l air) ([2]; Table 7, citrus note): 13.68 μg/l air
Type [2, 14]: Bottom
Molecule: 3-(3,3-dimethyl-2,3-dihydro-1H-inden-5-yl)propanal (A) + 3-(1,1-dimethyl-2,3-dihydro-1H-inden-4-yl)propanal (B) + 3-(1,1-dimethyl-2,3-dihydro-1H-inden-5-yl)propanal (C)
Odor Threshold (μg/l air) ([1]; Table 4, watery note): 4.00E−03 μg/l air
Odor Value [1, 11]: 3.42E+03
Odor Threshold (μg/l air) ([1]; Table 7, citrus note): 4.00E−03 μg/l air
Odor Value [1, 12]: 3.42E+03
Type [2, 13]: bottom (perfuming compounds having a volatility ranging from 49 to 0.1 μg/l in air are referred to as “bottom notes”)

Volatility (μg/l air) ([2]; Table 4, watery note): 13.73 μg/l air
Molecule: 3-(3,3-dimethyl-2,3-dihydro-1H-inden-5-yl)propanal (A) + 3-(1,1-dimethyl-2,3-dihydro-1H-inden-5-yl)propanal (B)
Odor Threshold (μg/l air) ([1]; Table 4, watery note): 1.32E−05 μg/l air
Odor Value [1, 11]: 1.04E+06
Type [2, 13]: bottom (perfuming compounds having a volatility ranging from 49 to 0.1 μg/l in air are referred to as “bottom notes”)

Volatility (μg/l air) ([2]; Table 4, watery note): 48.69 μg/l air
Molecule: 3-(4-ETHYLPHENYL)-2,2-DIMETHYLPROPANAL (A) + 3-(2-ETHYLPHENYL)-2,2-DIMETHYLPROPANAL (B)
Odor Threshold (μg/l air) ([1]; Table 4, watery note): 5.33E−03 μg/l air
Odor Value [1, 11]: 9.14E+03
Type [2, 13]: bottom (perfuming compounds having a volatility ranging from 49 to 0.1 μg/l in air are referred to as “bottom notes”)

Volatility (μg/l air) ([2]; Table 4, watery note): 5.87 μg/l air
Volatility [2, 9]: 5.87 μg/l air
Type [2, 10]: Bottom
Volatility (μg/l air) ([2]; Table 7, citrus note): 5.87 μg/l air
Type [2, 14]: Bottom
Molecule: 8(9)-METHOXY-TRICYCLO[5.2.1.0(2,6)]DECANE-3(4)-CARBALDEHYDE
Odor Threshold (μg/l air) ([1]; Table 4, watery note): 4.02E−05 μg/l air
Odor Value [1, 11]: 1.46E+05
Odor Threshold [1, 9]: 4.02E−05 μg/l air
Odor Value [1, 9]: 1.46E+05
Odor Threshold (μg/l air) ([1]; Table 7, citrus note): 4.02E−05 μg/l air
Odor Value [1, 12]: 1.46E+05
Type [2, 13]: bottom (perfuming compounds having a volatility ranging from 49 to 0.1 μg/l in air are referred to as “bottom notes”)

Volatility (μg/l air) ([2]; Table 7, citrus note): 2.10 μg/l air
Type [2, 14]: Bottom
Molecule: 9-ETHYLIDENE-3-OXATRICYCLO[6.2.1.0(2,7)]UNDECAN-4-ONE (A) + 10-ETHYLIDENE-3-OXATRICYCLO[6.2.1.0(2,7)] . . . (B)
Odor Threshold (μg/l air) ([1]; Table 7, citrus note): 1.42E−04 μg/l air
Odor Value [1, 12]: 1.48E+04

Volatility (μg/l air) ([2]; Table 4, watery note): 131.95 μg/l air
Molecule: 10-undecenal (A) + (9E)-9-undecenal (B) + (9Z)-9-undecenal (C)
Odor Threshold (μg/l air) ([1]; Table 4, watery note): 3.77E−05 μg/l air
Odor Value [1, 11]: 3.50E+06
Type [2, 13]: TOP (perfuming compounds having a volatility ranging from 70,000 to 100 μg/l in air are referred to as “top notes”)

Volatility (μg/l air) ([2]; Table 4, watery note): 26.54 μg/l air
Molecule: CC(C)=CCCC1=CCC(C)(C=O)CC1 (racemic)
Odor Threshold (μg/l air) ([1]; Table 4, watery note): 2.72E−02 μg/l air
Odor Value [1, 11]: 9.76E+02
Type [2, 13]: bottom (perfuming compounds having a volatility ranging from 49 to 0.1 μg/l in air are referred to as “bottom notes”)

Volatility (μg/l air) ([2]; Table 4, watery note): 4.86 μg/l air
Molecule: Cc1ccc2c(c1)CC(C)(CO)C2 (racemic)
Odor Threshold (μg/l air) ([1]; Table 4, watery note): 1.28E−04 μg/l air
Odor Value [1, 11]: 3.79E+04
Type [2, 13]: bottom (perfuming compounds having a volatility ranging from 49 to 0.1 μg/l in air are referred to as “bottom notes”)

Volatility (μg/l air) ([2]; Table 4, watery note): 1889.68 μg/l air
Volatility [2, 9]: 1889.68 μg/l air
Molecule: CC(C)=CCCC(C)C=O (racemic)
Odor Threshold (μg/l air) ([1]; Table 4, watery note): 2.11E−04 μg/l air
Odor Value [1, 11]: 8.96E+06
Type [2, 13]: TOP (perfuming compounds having a volatility ranging from 70,000 to 100 μg/l in air are referred to as “top notes”)
Type [2, 10]: TOP (perfuming compounds having a volatility ranging from 70,000 to 100 μg/l in air are referred to as “top notes”)

Volatility (μg/l air) ([2]; Table 4, watery note): 18.23 μg/l air
Molecule: CC(C)=CCCC(C)CCCC(C)C=O (racemic)
Odor Threshold (μg/l air) ([1]; Table 4, watery note): 1.59E−02 μg/l air
Odor Value [1, 11]: 1.15E+03
Type [2, 13]: bottom (perfuming compounds having a volatility ranging from 49 to 0.1 μg/l in air are referred to as “bottom notes”)
